Laboratory results reported in US20210003580A1, “METHODS OF DETECTION AND TREATMENT OF HYPER TRANSCRIPTION DISEASES” (BOARD OF REGENTS OF THE UNIVERSITY OF TEXAS SYSTEM, priority 2018, published 2021).

Tests used:
TC32 cells = assay: Transcription recovery assay (EU incorporation), TC32; assay type: cell-based, human; conditions: exposed for 2 or 16 hours, 30 min EU labeling
Procedure: (§1) Transcription Recovery Assay. […] Post-incubation, cells were fixed, permeabilized and subjected to Click-iT RNA reaction (Click-iT RNA Alexa Flour […] Imaging kit, ThermoFisher Scientific) according to manufacturer's instructions. Washed coverslips were mounted onto glass slides using ProLong Antifade Mounting Solution with DAPI (ThermoFisher Scientific) and imaged using a Zeiss microscope at 63×. A minimum of 100 cells were analyzed for each condition. Image analysis was performed using ImageJ.

EwS cell lines = assay: Cell viability (Celltiter-Glo) after drug exposure, EwS cell lines vs controls; assay type: cell-based, human; conditions: cell viability measured after 72 hours exposure, compared to controls IMR90 / U2OS
Procedure: Cell culture and transfections. Ewing sarcoma cell lines (TC32, CHLA10 and CHLA258) were obtained from Children's Oncology Group and EWS502 was obtained from Dr. Lessnick. Of note, TC32 is highly chemosensitive and CHLA10 was derived from a post-treatment recurrent chemoresistant tumor (Table 1). As controls, IMR90 (primary human neonatal fibroblast) and U2OS (pediatric Osteosarcoma) cell lines were obtained from ATCC. IMR90 and U2OS were cultured in DMEM (Corning), TC32, EWS502, RDES in […] (Corning), SKES1 in McCoys (Corning) and CHLA10, CHLA258 in IMDM (HyClone); all cultured media were supplemented with 10% FBS (Atlanta Biologicals) and 1% antibiotic/antimycotic solution (Corning). Cells were maintained at 37° C. in a humidified atmosphere with 5% CO2 and tested for mycoplasma contamination.
(§2) Cell viability. Cells were seeded at 30% confluence in 96 or 384 well plates with or without reverse transfection with siRNA. For plasmid expression, cells were transfected in 60 mm dishes first and then split into 96 or 384 well plates. The following day, the cells were treated to different drugs/inhibitors and cell viability was evaluated after 48 to 72 hours using Celltiter-Glo (Promega). Each condition was tested in triplicate. […] Drug screening data from an independently published study was obtained from http://www.cancerrxgene.org/.

IMR90 cells = assay: Transcription recovery assay (EU incorporation), IMR90; assay type: cell-based, human; conditions: exposed for 2 or 16 hours, 30 min EU labeling
Procedure: as §1

[1] = test system: U2OS cells transfected with EWS-FLI1; assay: Cell viability, U2OS cells transfected with EWS-FLI1 vs empty vector; assay type: cell-based, human; conditions: compared to empty vector (EV) transfected cells
Procedure: All transfections were carried out using Lipofectamine RNAiMax, Lipofectamine 3000 (Invitrogen) following manufacturer's instructions. For RNASEH1 transfections, 3×10^6 TC32 cells were transfected with 13 μg of plasmid DNA using Amaxa nucleofection (program X-001). Gene knockdowns were performed by reverse transfection whereas plasmid transfections were performed 24 hours after seeding. The siRNAs used in this study include: BRCA1 and EWSR1 (Life Technologies), EWSR1, BRCA1, FLI1, FUS, TAF15, 53BP1, FANCA, FANCD2 and FANCI (Santa Cruz). For some experiments, lentiviral transduction of TC32 with shCtrl (clone RHZ4743, Life Technologies) or shFLI1 (clone V2THS227524 or V3THS414176, Life Technologies) was performed. EWS-FLI1, EWS-FLI1 R2L2, EWS-ERG, EWSR1 (full length) and shEWSR1 in pMSCV vector were obtained from Dr. Stephen Lessnick. EWSR1 N terminal domain in pLX304 vector was purchased from DNASU. GFP-RNASEH1 and FLAG-RNASEH1 plasmids were a kind gift from Dr. Robert Crouch (Eunice Kennedy Shriver National Institute of Child Health and Human Development). HA-BRCA1 was obtained from Dr. Yuzuru Shiio (UTH-SA). […]
Cell viability. […] The following day, the cells were treated to different drugs/inhibitors and cell viability was evaluated after 48 to 72 hours using Celltiter-Glo (Promega). […]

[2] = test system: U2OS cells with EWSR1 knockdown; assay: Cell viability, EWSR1-depleted U2OS cells; assay type: cell-based, human; conditions: U2OS siEWSR1 relative to U2OS siCtrl; 72 hours
Procedure: All transfections were carried out using Lipofectamine RNAiMax, Lipofectamine 3000 (Invitrogen) following manufacturer's instructions. For RNASEH1 transfections, 3×10^6 TC32 cells were transfected with 13 μg of plasmid DNA using Amaxa nucleofection (program X-001). Gene knockdowns were performed by reverse transfection whereas plasmid transfections were performed 24 hours after seeding. The siRNAs used in this study include: BRCA1 and EWSR1 (Life Technologies), EWSR1, BRCA1, FLI1, FUS, TAF15, 53BP1, FANCA, FANCD2 and FANCI (Santa Cruz). For some experiments, lentiviral transduction of TC32 with shCtrl (clone RHZ4743, Life Technologies) or shFLI1 (clone V2THS227524 or V3THS414176, Life Technologies) was performed. EWS-FLI1, EWS-FLI1 R2L2, EWS-ERG, EWSR1 (full length) and shEWSR1 in pMSCV vector were obtained from Dr. Stephen Lessnick. EWSR1 N terminal domain in pLX304 vector was purchased from DNASU. GFP-RNASEH1 and FLAG-RNASEH1 plasmids were a kind gift from Dr. Robert Crouch (Eunice Kennedy Shriver National Institute of Child Health and Human Development). HA-BRCA1 was obtained from Dr. Yuzuru Shiio (UTH-SA). ISceI in pCAGGS vector was a kind gift from Dr. Maria Jasin (Memorial Sloan Kettering Cancer Center) and Dr. Jeremy Stark (City of Hope Cancer Center). All siRNA and plasmid transfections were accompanied with control siRNA or empty vector respectively.
as §2

CDK9/cyclin T1 = target: T1, CDK9/cyclin T1 (Homo sapiens, UniProt P50750); assay: In vitro RNAPII phosphorylation assay (Adapta kinase assay), CDK9; assay type: biochemical; conditions: 1 μM recombinant protein; substrates CDKtide or RNAPII CTD fragment; relative to vehicle
T1 construct: purchased ThermoFisher Scientific PV4131
T1 sequence (P50750 whole entry, the tested form may be a part): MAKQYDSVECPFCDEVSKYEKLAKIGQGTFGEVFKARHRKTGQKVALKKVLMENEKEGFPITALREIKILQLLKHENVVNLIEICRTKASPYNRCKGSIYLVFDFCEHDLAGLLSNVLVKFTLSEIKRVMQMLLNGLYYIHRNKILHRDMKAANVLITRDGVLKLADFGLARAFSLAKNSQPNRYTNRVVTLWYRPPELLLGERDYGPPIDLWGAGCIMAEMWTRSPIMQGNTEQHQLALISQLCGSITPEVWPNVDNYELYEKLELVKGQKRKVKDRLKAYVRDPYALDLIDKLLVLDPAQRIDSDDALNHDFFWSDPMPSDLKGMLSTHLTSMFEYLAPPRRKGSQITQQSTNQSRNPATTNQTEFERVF
T1 sequence (O60563 whole entry partner, the tested form may be a part): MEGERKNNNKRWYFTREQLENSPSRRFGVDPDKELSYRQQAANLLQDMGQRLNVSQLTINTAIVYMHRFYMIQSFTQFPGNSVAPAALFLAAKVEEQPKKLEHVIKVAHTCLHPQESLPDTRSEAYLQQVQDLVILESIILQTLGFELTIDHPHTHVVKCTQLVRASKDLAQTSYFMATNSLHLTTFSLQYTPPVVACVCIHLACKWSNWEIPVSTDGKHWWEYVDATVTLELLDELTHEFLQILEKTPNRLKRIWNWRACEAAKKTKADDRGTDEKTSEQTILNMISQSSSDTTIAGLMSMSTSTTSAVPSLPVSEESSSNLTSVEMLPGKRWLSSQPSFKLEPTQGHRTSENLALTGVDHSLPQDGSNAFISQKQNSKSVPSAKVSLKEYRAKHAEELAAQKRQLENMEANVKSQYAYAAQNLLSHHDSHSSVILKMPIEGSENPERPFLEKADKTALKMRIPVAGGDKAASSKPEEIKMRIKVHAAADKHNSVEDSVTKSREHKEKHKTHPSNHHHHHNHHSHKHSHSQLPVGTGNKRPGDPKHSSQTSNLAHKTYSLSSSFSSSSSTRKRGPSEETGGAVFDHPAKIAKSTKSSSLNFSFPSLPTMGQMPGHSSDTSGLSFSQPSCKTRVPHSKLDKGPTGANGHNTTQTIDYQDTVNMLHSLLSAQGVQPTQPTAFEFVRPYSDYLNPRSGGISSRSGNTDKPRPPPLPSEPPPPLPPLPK
Procedure: In vitro RNAPII phosphorylation assay. The following purified recombinant proteins were purchased: RNAPII CTD fragment (POLR2A-1149H, Creative BioMart), EWSR1 (TP303709, Origene), FUS (TP301808, Origene), CDK9/cyclin T1 (PV4131, ThermoFisher Scientific) and CDK7/cyclin H/MNAT1 (ab64303, Abcam). The in vitro kinase assay was performed using the Adapta kinase assay (PV5099, ThermoFisher Scientific) according to manufacturer's instructions. The template used for kinase activity was either 50 μM CDK7/9tide provided in the kit (PV5090, ThermoFisher Scientific), or 12 ng RNAPII CTD fragment. 1 μM EWSR1 or FUS was added to the substrate and 10 μM ATP kinase buffer and pre-incubated for 15 min. 1.77 μg/ml CDK9/cyclin T1 or 5.6 μg/ml CDK7/cyclin H/MNAT1 were then added and the kinase reaction was allowed to proceed for a further 45 minutes. 10 μM ADP and 10 μM ATP served positive and negative controls. Finally, Eu-labeled antibody and Alexa Fluor-647-labeled tracer added and the level of ATP consumption was measured 30 minutes later using BMG Labtech Pherastar microplate reader. Each condition was tested in quadruplicate and the overall experiment was repeated at least 3 times for independent validation.

Molecule	sensitivity (cell viability) of EwS cell lines compared to controls (EwS cell lines)	sensitivity (cell viability) of EWSR1-depleted U2OS cells [2]	other results
COc1cc([C@@H]2c3cc4c(cc3[C@@H](O[C@@H]3O[C@@H]5CO[C@@H](C)O[C@H]5[C@H](O)[C@H]3O)[C@H]3COC(=O)[C@H]23)OCO4)cc(OC)c1O [etoposide]	acutely sensitive	–	transcriptional activity (EU incorporation) after exposure (TC32 cells): much delayed loss of transcription; transcriptional activity (EU incorporation) after exposure (IMR90 cells): decrease in EU incorporation two hours post-damage followed by recovery at 16 hours
NC(=O)NO [hydroxyurea]	acutely sensitive	–	–
O=c1c2ccccc2sn1-c1ccccc1 [R11]	significantly higher sensitivity	–	–
CS(=O)(=O)c1ccc(-c2cnc(N)c(C(=O)Nc3ccccc3)n2)cc1 [VE-821]	significantly more sensitive	significantly more sensitive	sensitivity (cell viability) of U2OS cells expressing EWS-FLI1 [1]: significantly more sensitive
CC[C@@]1(O)C(=O)OCc2c1cc1n(c2=O)Cc2cc3ccccc3nc2-1 [camptothecin]	much more sensitive	much more sensitive	–
O=C(c1cc(Cc2n[nH]c(=O)c3ccccc23)ccc1F)N1CCN(C(=O)C2CC2)CC1 [Olaparib]	exquisite sensitivity	–	sensitivity (cell viability) of U2OS cells expressing EWS-FLI1 [1]: exquisite sensitivity; sensitivity (cell viability) of EwS cell lines compared to controls (EwS cell lines; listed as olaparib): acutely sensitive
OC[C@H]1O[C@@H](n2cnc3cc(Cl)c(Cl)cc32)[C@H](O)[C@@H]1O [DRB, 5,6-dichloro-1-β-D-ribofuranosyl-1H-benzimidazole]	much more sensitive	much more sensitive	–
EWSR1: purified recombinant EWSR1 protein (TP303709, Origene) (protein, UniProt Q01844 1-656, looked up) RNA-binding protein EWS: MASTDYSTYSQAAAQQGYSAYTAQPTQGYAQTTQAYGQQSYGTYGQPTDVSYTQAQTTATYGQTAYATSYGQPPTGYTTPTAPQAYSQPVQGYGTGAYDTTTATVTTTQASYAAQSAYGTQPAYPAYGQQPAATAPTRPQDGNKPTETSQPQSSTGGYNQPSLGYGQSNYSYPQVPGSYPMQPVTAPPSYPPTSYSSTQPTSYDQSSYSQQNTYGQPSSYGQQSSYGQQSSYGQQPPTSYPPQTGSYSQAPSQYSQQSSSYGQQSSFRQDHPSSMGVYGQESGGFSGPGENRSMSGPDNRGRGRGGFDRGGMSRGGRGGGRGGMGSAGERGGFNKPGGPMDEGPDLDLGPPVDPDEDSDNSAIYVQGLNDSVTLDDLADFFKQCGVVKMNKRTGQPMIHIYLDKETGKPKGDATVSYEDPPTAKAAVEWFDGKDFQGSKLKVSLARKKPPMNSMRGGLPPREGRGMPPPLRGGPGGPGGPGGPMGRMGGRGGDRGGFPPRGPRGSRGNPSGGGNVQHRAGDWQCPNPGCGNQNFAWRTECNQCKAPKPEGFLPPPFPPPGGDRGRGGPGGMRGGRGGLMDRGGPGGMFRGGRGGDRGGFRGGRGMDRGGFGGGRRGGPGGPPGPLMEQMGGRRGGRGGPGKMDKGEHRQERRDRPY	–	–	inhibition of phosphorylation of RNAPII CTD by CDK9 (CDK9/cyclin T1): inhibited
FUS: purified recombinant FUS protein (TP301808, Origene) (protein, UniProt P35637 1-526, looked up) RNA-binding protein FUS: MASNDYTQQATQSYGAYPTQPGQGYSQQSSQPYGQQSYSGYSQSTDTSGYGQSSYSSYGQSQNTGYGTQSTPQGYGSTGGYGSSQSSQSSYGQQSSYPGYGQQPAPSSTSGSYGSSSQSSSYGQPQSGSYSQQPSYGGQQQSYGQQQSYNPPQGYGQQNQYNSSSGGGGGGGGGGNYGQDQSSMSSGGGSGGGYGNQDQSGGGGSGGYGQQDRGGRGRGGSGGGGGGGGGGYNRSSGGYEPRGRGGGRGGRGGMGGSDRGGFNKFGGPRDQGSRHDSEQDNSDNNTIFVQGLGENVTIESVADYFKQIGIIKTNKKTGQPMINLYTDRETGKLKGEATVSFDDPPSAKAAIDWFDGKEFSGNPIKVSFATRRADFNRGGGNGRGGRGRGGPMGRGGYGGGGSGGGGRGGFPSGGGGGGGQQRAGDWKCPNPTCENMNFSWRNECNQCKAPKPDGPGGGPGGSHMGGNYGDDRRGGRGGYDRGGYRGRGGDRGGFRGGRGGGDRGGFGPGKMDSRGEHRQDRRERPY	–	–	inhibition of phosphorylation of RNAPII CTD by CDK9 (CDK9/cyclin T1): inhibited
